The values below come from ChEMBL document CHEMBL5131463, “Target-Based Virtual Screening and LC/MS-Guided Isolation Procedure for Identifying Phloroglucinol-Terpenoid Inhibitors of SARS-CoV-2” (J Nat Prod, 2022).

The nature of data set [1]: Cytotoxicity against human Calu-3 cells by CCK-8 assay. In kind it is toxicity, cell-based. On the technique in general: Tetrazolium assays rely on reduction of a dye to a coloured formazan, in cell work by metabolically active cells.
In data set [2] the test system is SARS-CoV-2. Description: Antiviral activity against SARS-Cov-2 infected in human Calu-3 cells assessed as inhibition of viral replication pretreated with compound for 1 hr followed by viral infection for 2 hrs measured after 24 hrs post infection in presence of wallichins C by qRt-PCR analysis. Type of data set: functional, organism-based. Particulars: Severe acute respiratory syndrome coronavirus 2, Calu-3.

In data set [3] the test system is SARS-CoV-2. Description: Antiviral activity against SARS CoV-2 VSV-delG pseudotype infected in african green monkey Vero E6 at 100 uM measured after 15 hrs post infection relative to control. Type of data set: functional. Particulars: Severe acute respiratory syndrome coronavirus 2, Vero C1008.
For data set [4], the target named is T1, Replicase polyprotein 1ab (Severe acute respiratory syndrome coronavirus 2, UniProt P0DTD1). Put plainly: Binding affinity to SARS-CoV-2 3CL protease at 1.875 to 50 uM in presence of wallichins C by SPR assay.
A short description of data set [5]: Cytotoxicity against African green monkey Vero E6 cells by CCK-8 assay. Type of data set: toxicity, cell-based, Vero C1008. Particulars: chlorocebus sabaeus.
The target of data set [6] is T1, Replicase polyprotein 1ab. Description: Binding affinity to SARS-CoV-2 3CL protease at 1.875 to 50 uM by SPR assay.
Data set [7] can be described thus: Selectivity index, ratio for CC50 of African green monkey Vero E6 cells to EC50 for SARS-Cov-2 infected in african monkey Vero E6 cells. Type of data set: toxicity, Vero C1008. Particulars: read-out: Selectivity Index.
Data set [8] in a line: Cytotoxicity against human Calu-3 cells in presence of wallichins C by CCK-8 assay. In kind it is toxicity, cell-based.
For data set [9], the system named is SARS-CoV-2. Put plainly: Antiviral activity against SARS-Cov-2 infected in african green monkey Vero E6 cells assessed as inhibition of viral replication pretreated with compound for 1 hr followed by viral infection for 2 hrs measured after 24 hrs post infection by qRt-PCR analysis. Type of data set: functional, organism-based. Particulars: Severe acute respiratory syndrome coronavirus 2, Vero C1008.

Data set [10] relates to SARS-CoV-2. Put plainly: Antiviral activity against SARS-Cov-2 infected in african green monkey Vero E6 cells assessed as inhibition of viral replication pretreated with compound for 1 hr followed by viral infection for 2 hrs measured after 24 hrs post infection in presence of wallichins C by qRt-PCR analysis. Particulars: Severe acute respiratory syndrome coronavirus 2, Vero C1008. In kind it is functional, organism-based.

The target of data set [11] is T1, Replicase polyprotein 1ab. Description: Inhibition of SARS-CoV-2 3CL protease using MCA-AVLQSGFR-Lys(Dnp)-Lys-NH2 as flurogenic substrate pre-incubated with compound for 10 mins followed by substrate addition measured after 10 mins in presence of wallichins C by FRET assay.
Data set [12] is described as follows: Cytotoxicity against African green monkey Vero E6 cells in presence of wallichins C by CCK-8 assay. Type of data set: toxicity, cell-based, Vero C1008. Particulars: chlorocebus sabaeus.
Data set [13] addresses T2, Spike glycoprotein (Severe acute respiratory syndrome coronavirus 2, UniProt P0DTC2). Put plainly: Binding affinity to SARS-CoV-2 Spike glycoprotein receptor-binding domain at 1.875 to 50 uM by SPR assay. For orientation: In SPR one partner is held on a chip, and binding of the other changes the refractive index at the surface.
In data set [14] the test system is SARS-CoV-2. Description: Antiviral activity against SARS-Cov-2 infected in human Calu-3 cells assessed as inhibition of viral replication pretreated with compound for 1 hr followed by viral infection for 2 hrs measured after 24 hrs post infection by qRt-PCR analysis. Particulars: Severe acute respiratory syndrome coronavirus 2, Calu-3. Type of data set: functional, organism-based.

Data set [15] concerns the target T2, Spike glycoprotein. Put plainly: Binding affinity to SARS-CoV-2 Spike glycoprotein receptor-binding domain at 1.875 to 50 uM in presence of wallichins C by SPR assay.
Data set [16] can be described thus: Selectivity index, ratio of CC50 for African green monkey Vero cells in presence of […] to EC50 for SARS-Cov-2 infected in african green monkey Vero E6 cells assessed as inhibition of viral replication in presence of wallichins C. Type of data set: toxicity, Vero C1008. Particulars: read-out: Selectivity Index.
In data set [17] the test system is SARS-CoV-2. Put plainly: Antiviral activity against SARS-Cov-2 infected in african green monkey Vero E6 cells assessed as inhibition of viral replication at 10 uM pretreated with compound for 1 hr followed by viral infection for 2 hrs measured after 24 hrs post infection in presence of wallichins C by qRt-PCR analysis relative to control. In kind it is functional. Particulars: Severe acute respiratory syndrome coronavirus 2, Vero C1008, time 27 hrs.

For data set [18], the target named is T1, Replicase polyprotein 1ab. Description: Inhibition of SARS-CoV-2 3CL protease using MCA-AVLQSGFR-Lys(Dnp)-Lys-NH2 as flurogenic substrate pre-incubated with compound for 10 mins followed by substrate addition measured after 10 mins by FRET assay.
The subject of data set [19] is SARS-CoV-2. Description: Antiviral activity against SARS-Cov-2 infected in human Calu-3 cells assessed as inhibition of viral replication pretreated with compound for 1 hr followed by viral infection for 2 hrs measured after 24 hrs post infection in presence of wallichins D by qRt-PCR analysis. Type of data set: functional, organism-based. Particulars: Severe acute respiratory syndrome coronavirus 2, Calu-3.

A short description of data set [20]: Cytotoxicity against African green monkey Vero E6 cells in presence of wallichins D by CCK-8 assay. Particulars: chlorocebus sabaeus. In kind it is toxicity, cell-based, Vero C1008.
Data set [21] addresses T1, Replicase polyprotein 1ab. Description: Binding affinity to SARS-CoV-2 3CL protease at 1.875 to 50 uM in presence of wallichins D by SPR assay.
Data set [22] is described as follows: Cytotoxicity against human Calu-3 cells in presence of wallichins D by CCK-8 assay. Type of data set: toxicity, cell-based.
The target in data set [23] is T1, Replicase polyprotein 1ab. Put plainly: Inhibition of SARS-CoV-2 3CL protease using MCA-AVLQSGFR-Lys(Dnp)-Lys-NH2 as flurogenic substrate pre-incubated with compound for 10 mins followed by substrate addition measured after 10 mins in presence of wallichins D by FRET assay.
Data set [24] concerns SARS-CoV-2. Put plainly: Antiviral activity against SARS-Cov-2 infected in african green monkey Vero E6 cells assessed as inhibition of viral replication pretreated with compound for 1 hr followed by viral infection for 2 hrs measured after 24 hrs post infection in presence of wallichins D by qRt-PCR analysis. Type of data set: functional, organism-based. Particulars: Severe acute respiratory syndrome coronavirus 2, Vero C1008.

In data set [25] the target is T2, Spike glycoprotein. Description: Binding affinity to SARS-CoV-2 Spike glycoprotein receptor-binding domain at 1.875 to 50 uM in presence of wallichins D by SPR assay.
The test system of data set [26] is SARS-CoV-2. Description: Antiviral activity against SARS-Cov-2 infected in african green monkey Vero E6 cells assessed as inhibition of viral replication at 10 uM pretreated with compound for 1 hr followed by viral infection for 2 hrs measured after 24 hrs post infection in presence of wallichins D by qRt-PCR analysis relative to control. In kind it is functional. Particulars: Severe acute respiratory syndrome coronavirus 2, Vero C1008, time 27 hrs.

The nature of data set [27]: Selectivity index, ratio of CC50 for African green monkey Vero cells in presence of wallichins D to EC50 for SARS-Cov-2 infected in african green monkey Vero E6 cells assessed as inhibition of viral replication in presence of wallichins D. Type of data set: toxicity, Vero C1008. Particulars: read-out: Selectivity Index.
Data set [28] relates to SARS-CoV-2. Description: Antiviral activity against SARS-Cov-2 infected in african green monkey Vero E6 cells assessed as inhibition of viral replication at 10 uM pretreated with compound for 1 hr followed by viral infection for 2 hrs measured after 24 hrs post infection by qRt-PCR analysis relative to control. Type of data set: functional. Particulars: Severe acute respiratory syndrome coronavirus 2, Vero C1008, time 27 hrs.

Each structure is given as a SMILES string.

What is called CC50 is the concentration at which the toxic effect on the cells reaches its halfway point. What is called EC50 is the concentration at which the effect is half-maximal. In general, inhibition in vivo refers to the drop in the measured response relative to a control, in per cent. One may read the Kd as the constant that tells how readily two partners part at equilibrium. One may read the IC50 as the concentration that inhibits the measured activity by half. In general, inhibition refers to the change of the read-out against control, counted positive when it falls. As for `C=C1CC[C@H]2[C@@](C)(CCC[C@]2(C)C(=O)O)[C@@H]1C/C=C(\C)[C@H]1CCc2c(O)c(CC3C(=O)C(C(C)=O)=C(O)C(C)(C)C3O)c(O)c(C(=O)CCC)c2O1` (some centres not stated), the CC50 is 64.3 µM in data set [1], above 140 µM in [5], 72.4 µM in data set [8] and above 140 µM in data set [12]. In addition, the EC50 was found to be 24.8 µM in the data set on SARS-CoV-2 [2], 12.1 µM with SARS-CoV-2 [9], 6.8 µM in the data set on SARS-CoV-2 [10] and 30 µM in the data set on SARS-CoV-2 [14]. This molecule also yielded an inhibition in vivo at 100 µM with SARS-CoV-2 [3] below 50%. Further, the dissociation constant Kd in data set [4] turned out to be 12 µM; in data set [6], 14.3 µM; at Spike glycoprotein [13], 67.9 µM; at Spike glycoprotein [15], 64.7 µM. Also, the selectivity ratio in [7] was above 11; in data set [16] it was above 27. Besides, the results for the IC50 in [11] and in data set [18] were 5.6 µM and 8.1 µM, respectively. For the same molecule, the inhibition at 10 µM in the data set on SARS-CoV-2 [17] came out at 87.7%.
In the case of `C=C1CC[C@H]2[C@@](C)(CCC[C@]2(C)C(=O)O)[C@@H]1C/C=C(\C)[C@@H]1CCc2c(O)c(CC3C(=O)C(C(C)=O)=C(O)C(C)(C)C3O)c(O)c(C(=O)CCC)c2O1` (some centres not stated), the CC50 is 98.6 µM in [1], above 140 µM in data set [20], above 140 µM in data set [5] and 72.4 µM in data set [22]. The EC50 with SARS-CoV-2 [19] was 24.8 µM; with SARS-CoV-2 [24], 6.8 µM; with SARS-CoV-2 [9], 4.5 µM; in the data set with SARS-CoV-2 [14] it was 20.2 µM. Moreover, the inhibition in vivo at 100 µM in the data set on SARS-CoV-2 [3] was below 50%. The Kd in data set [21] was found to be 12 µM; in data set [6] it was 16.6 µM; at Spike glycoprotein [13], 91.7 µM; at Spike glycoprotein [25], 64.7 µM. Also, the results for the selectivity ratio in data set [7] and in data set [27] were above 35 and above 27, respectively. Besides, the figures for the IC50 in [23] and in data set [18] were 5.6 µM and 7.5 µM, respectively. In addition, the inhibition at 10 µM in the data set with SARS-CoV-2 [26] came out at 87.7%.
Regarding `C=C1CC[C@H]2[C@@](C)(CCC[C@]2(C)C(=O)O)[C@@H]1C/C=C(\C)[C@H]1CCC2=C(O1)C(C)(C)C(O)=C(C(C)=O)C2=O`, the inhibition at 10 µM with SARS-CoV-2 [28] was determined as 51.7%.
